We go through three molecules from ChEMBL document CHEMBL1201862, “PubChem BioAssay data set” (2004).

The target in assay [1] is DNA dC->dU-editing enzyme APOBEC-3G (Homo sapiens, UniProt Q9HC16). As to the kind of experiment: inhibition of APOBEC3G ssDNA deamination – biochemical, fluorescence, single-stranded DNA substrate, SAR follow-up (AID 602136). It counts as functional. The note with it: read-out: IC50_Mean.
Assay [2] addresses DNA dC->dU-editing enzyme APOBEC-3A (Homo sapiens, UniProt P31941). The experiment in a line: SAR analysis of small molecule inhibitors of APOBEC3A DNA Deaminase via a fluorescence-based single-stranded DNA deaminase assay. It counts as functional. The note with it: read-out: IC50_Mean.
Assay [3] can be described thus: THP-1 cell cytotoxicity, dose response, cytotoxicity control, set 3 (AID 504852). The assay is classed as functional. The following applies: Mycobacterium tuberculosis.
Assay [4] can be described thus: Vero cell cytotoxicity, dose response, cytotoxicity control for M. tuberculosis growth inhibitor project, Vero cells, purified and synthesized compounds, set 4 (AID 504854). It counts as functional. The following applies: Mycobacterium tuberculosis.
The nature of assay [5]: NIH-3T3 fibroblast cytotoxicity, dose response, cytotoxicity control, cell-based, fluorescence, Alamar Blue, secondary assay (AID 2327).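 Also: NIH-3T3 mouse fibroblasts cultured with fluconazole at 8 µg/mL.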 It counts as functional. For orientation: Alamar Blue is a resazurin reagent that responds to reducing activity.
Assay [6] deals with Serine/threonine-protein phosphatase PP1-alpha catalytic subunit (Homo sapiens, UniProt P62136). The experiment in a line: inhibition of protein phosphatase 1 activity – biochemical, fluorescence, dose response (AID 2403).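 Also: phosphatase turnover of OMFP into fluorescent 3-O-methylfluorescein.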
Chain of Serine/threonine-protein phosphatase PP1-alpha catalytic subunit (P62136 whole entry): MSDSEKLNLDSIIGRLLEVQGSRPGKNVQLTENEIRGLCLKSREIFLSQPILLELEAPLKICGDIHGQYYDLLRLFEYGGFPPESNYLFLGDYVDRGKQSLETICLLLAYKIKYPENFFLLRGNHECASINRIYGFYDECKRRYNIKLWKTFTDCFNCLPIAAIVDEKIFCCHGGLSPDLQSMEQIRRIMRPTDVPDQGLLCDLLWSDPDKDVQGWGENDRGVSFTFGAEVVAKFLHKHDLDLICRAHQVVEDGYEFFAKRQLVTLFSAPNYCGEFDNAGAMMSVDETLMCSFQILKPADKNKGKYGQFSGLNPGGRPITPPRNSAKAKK
The nature of assay [7]: fluconazole-exposed Candida albicans growth modulators – fluorescence, retest, confirmation (AID 2467). It counts as functional, cell-based.
A short description of assay [8]: Trypanosoma cruzi growth suppression in host cells – NIH3T3 host cells, beta-gal luminescence, confirmation (AID 2044).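 Also: intracellular parasites grown in NIH/3T3 mouse fibroblasts as host cells; luminescent beta-galactosidase reporter signal from transgenic T. cruzi replicating inside host cells; inhibitors lower the luminescence signal.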 It counts as functional, cell-based.
The target of assay [9] is Serine/threonine-protein phosphatase (Homo sapiens, UniProt Q9BPW0). As to the kind of experiment: Counterscreen for inhibitors of PP1: fluorescence-based biochemical high throughput dose response assay to identify inhibitors of Protein Phosphatase 5 (PP5). [Related pubchem assays: 2034 (Summary (PP5 inhibitors)), 1987 (PP5 inhibitors in singlate), 2235 (PP1 inhibitors in singlate)].
Chain of Serine/threonine-protein phosphatase (Q9BPW0 whole entry): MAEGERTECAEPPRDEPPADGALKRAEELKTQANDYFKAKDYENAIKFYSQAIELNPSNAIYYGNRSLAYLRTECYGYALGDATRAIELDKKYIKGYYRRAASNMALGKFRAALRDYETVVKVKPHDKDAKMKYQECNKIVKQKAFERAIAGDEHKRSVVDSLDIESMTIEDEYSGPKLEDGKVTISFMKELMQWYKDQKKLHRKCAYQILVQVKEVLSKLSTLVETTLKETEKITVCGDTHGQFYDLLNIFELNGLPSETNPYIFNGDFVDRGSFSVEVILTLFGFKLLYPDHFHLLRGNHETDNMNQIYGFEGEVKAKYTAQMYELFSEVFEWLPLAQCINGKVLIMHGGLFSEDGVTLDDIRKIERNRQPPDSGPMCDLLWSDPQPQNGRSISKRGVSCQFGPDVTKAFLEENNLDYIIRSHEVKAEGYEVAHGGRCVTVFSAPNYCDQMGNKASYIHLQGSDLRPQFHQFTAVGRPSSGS

Assay [10] in a line: NIH3T3 cell viability loss – ATP luminescence, mouse fibroblasts, counter-screen, dose response (AID 2010).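 Also: cells exposed to compound for about 90 hours before reading.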 The assay is classed as functional, cell-based. In general terms: A counterscreen serves to expose hits that act by an unwanted route or on another target.
The next assay relates to HEK293. The experiment in a line: EBV LMP1 TES2 canonical NF-kB signalling blockers – cell-based, HEK293, luciferase, cherry-pick, dose response (AID 588343). It counts as functional. The note with it: Homo sapiens.
The target in assay [11] is Latent membrane protein 1 (Human herpesvirus 4 (strain B95-8), UniProt P03230). As to the kind of experiment: LMP1 TES1 pathway selectivity over dsRED control – imaging, HEK293T, dual-color eGFP/dsRED, cherry-picks, selectivity assay for LMP1 NF-kB inhibitor project, dose response (AID 588398). The assay is classed as functional, cell-based.
Chain of Latent membrane protein 1 (P03230 whole entry): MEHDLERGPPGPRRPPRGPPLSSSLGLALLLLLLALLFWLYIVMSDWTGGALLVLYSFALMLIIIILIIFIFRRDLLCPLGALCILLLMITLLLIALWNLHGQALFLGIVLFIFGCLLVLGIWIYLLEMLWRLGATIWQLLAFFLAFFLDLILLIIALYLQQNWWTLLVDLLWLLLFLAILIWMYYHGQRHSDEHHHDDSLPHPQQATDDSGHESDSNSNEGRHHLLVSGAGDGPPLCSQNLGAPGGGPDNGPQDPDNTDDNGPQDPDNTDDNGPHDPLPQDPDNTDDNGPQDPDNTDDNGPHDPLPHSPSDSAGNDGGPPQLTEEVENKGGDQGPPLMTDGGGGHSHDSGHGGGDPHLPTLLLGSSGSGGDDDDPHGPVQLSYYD
The test system of the next assay is INS1. As to the kind of experiment: INS-1E survival protection against cytokine death – cell-based, luminescence, retest, dose response (AID 449756).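 Also: cell death triggered by IL-1 beta plus TNF-alpha plus IFN-gamma mixture; protective hits raise ATP signal compared with cytokine alone wells.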 It counts as functional. The following applies: Rattus norvegicus.
Assay [12] has as its target Photoreceptor-specific nuclear receptor (Homo sapiens, UniProt Q9Y5X4). It counts as functional, cell-based.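 Also: CHO-S cells with Gal4-NCOR and VP16-NR2E3 two-hybrid luciferase reporter.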

Molecules are shown by their SMILES. Activity calls are given as the source filed them.

Chain of DNA dC->dU-editing enzyme APOBEC-3A (P31941 whole entry): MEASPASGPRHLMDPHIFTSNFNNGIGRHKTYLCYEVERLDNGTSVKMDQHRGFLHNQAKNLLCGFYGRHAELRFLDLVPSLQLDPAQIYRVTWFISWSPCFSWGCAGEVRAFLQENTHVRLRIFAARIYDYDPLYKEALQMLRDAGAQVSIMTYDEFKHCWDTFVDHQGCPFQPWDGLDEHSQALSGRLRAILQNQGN
Chain of DNA dC->dU-editing enzyme APOBEC-3G (Q9HC16 whole entry): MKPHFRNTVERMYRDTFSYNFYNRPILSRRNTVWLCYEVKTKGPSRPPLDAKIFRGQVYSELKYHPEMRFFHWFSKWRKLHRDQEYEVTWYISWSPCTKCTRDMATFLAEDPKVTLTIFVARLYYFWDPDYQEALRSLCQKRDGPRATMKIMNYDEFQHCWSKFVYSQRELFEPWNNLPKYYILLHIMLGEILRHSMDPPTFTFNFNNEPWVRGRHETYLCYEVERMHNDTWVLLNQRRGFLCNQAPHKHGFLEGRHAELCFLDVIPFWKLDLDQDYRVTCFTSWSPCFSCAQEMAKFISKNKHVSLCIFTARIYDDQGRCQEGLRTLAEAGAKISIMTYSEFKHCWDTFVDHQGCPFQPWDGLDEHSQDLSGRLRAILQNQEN
Chain of Photoreceptor-specific nuclear receptor (Q9Y5X4 whole entry, the tested form may be a part): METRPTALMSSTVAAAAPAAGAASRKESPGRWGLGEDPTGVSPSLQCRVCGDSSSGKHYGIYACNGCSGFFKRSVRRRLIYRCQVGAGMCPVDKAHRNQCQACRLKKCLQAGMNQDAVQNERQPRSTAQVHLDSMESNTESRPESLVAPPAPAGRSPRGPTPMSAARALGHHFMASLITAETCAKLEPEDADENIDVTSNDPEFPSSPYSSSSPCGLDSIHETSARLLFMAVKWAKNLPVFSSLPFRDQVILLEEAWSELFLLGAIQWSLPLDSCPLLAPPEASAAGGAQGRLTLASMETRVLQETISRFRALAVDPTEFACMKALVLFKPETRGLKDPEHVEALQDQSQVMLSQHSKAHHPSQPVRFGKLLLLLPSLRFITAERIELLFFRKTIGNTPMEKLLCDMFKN

On to `CCOC(=O)CC(c1ccc(N)cc1)n1c(C)ccc1C` (centres undefined), for which the IC50 in assay [1] and in assay [2] was > 99 µM (inactive) in each case.

Regarding `CC1CCN(C(=O)CSc2nc(O)c3ccccc3n2)CC1`, the CC50 in assay [3] and in assay [4] was > 100 µM (active) throughout.

For `COc1cnc(-c2ccccn2)nc1Sc1ccccc1Cl`, the EC50 in assay [5] is > 150 µM (inconclusive); in assay [7] it was > 38 µM (not active); in [8], 2.36 µM (active); in assay [10] it was > 60 µM (not active). The values for the IC50 in [6], in [9] and in assay [12] were 7.8 µM (active), 59.1 µM (not active) and 4.25 µM (active), respectively. For the same molecule, the results for the AC50 (in the assay on HEK293; in assay [11]; in the assay on INS1) were 112 µM (active), 15.4 µM (active) and 7.29 µM (active), respectively.

As usually defined, the CC50 is the concentration giving 50% cytotoxicity. What is called EC50 is the concentration needed to bring the measured effect to its halfway point. One may read the AC50 as the concentration giving half of the maximal activity seen.
